From patent publication US20040076968A1, “Method for detecting pre-disposition to hepatotoxicity” (priority 2000, published 2004)

Assay: Clinical trials for tolcapone in patients with Parkinson's disease: liver transaminases
Assay type: in vivo, human
Conditions: rare circumstances
From the text: There was therefore a desire to establish whether there is a correlation between the occurrence of such liver abnormalities, which are indicators of liver toxicity and certain genetic pre-dispositions.

Compound: Cc1ccc(C(=O)c2cc(O)c(O)c([N+](=O)[O-])c2)cc1 [tolcapone]
- effect on liver transaminase activity: reversible asymptomatic increase in liver transaminase activity
